Target: T1, TRβ (Homo sapiens, UniProt P10828)
T1 construct: expression construct for the full-length human receptor under investigation; expressed in transfected cells; host or cells: human U2-OS cells (ATCC HTB-96), stably transfected
T1 sequence (P10828 1-461): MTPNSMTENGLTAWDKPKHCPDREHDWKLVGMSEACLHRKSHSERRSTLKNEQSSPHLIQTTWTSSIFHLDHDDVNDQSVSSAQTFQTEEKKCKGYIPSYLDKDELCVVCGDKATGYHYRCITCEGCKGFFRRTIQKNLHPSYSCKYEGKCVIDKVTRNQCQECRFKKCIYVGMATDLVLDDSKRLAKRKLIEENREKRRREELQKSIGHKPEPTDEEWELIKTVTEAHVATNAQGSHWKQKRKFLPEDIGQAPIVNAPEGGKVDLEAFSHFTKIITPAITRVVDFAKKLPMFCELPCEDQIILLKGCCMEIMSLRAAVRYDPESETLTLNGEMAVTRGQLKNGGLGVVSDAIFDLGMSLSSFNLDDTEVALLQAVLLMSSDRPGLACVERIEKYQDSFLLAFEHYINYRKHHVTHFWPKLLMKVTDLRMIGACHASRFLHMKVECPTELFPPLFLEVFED
Assay: TRβ-anti CALUX reporter gene assay (antagonistic mode)
Type: cell-based
Set-up: key: –: no effect observed up to the highest test concentration
Conditions: PC20, 24 h exposure
Excerpt: 2-methylimidazole 99.0%, zinc(II) nitrate hexahydrate ≥99.0%, para-cymene 99.0%, 1,4-dioxane 99.8% (anhydrous), 4-nitroaniline ≥99.0%, 1-octanol ≥99.0%, diglyme ≥99.0%, DMSO-d6 (99.8% D) and chloroform-d (99.8% D) were purchased from Sigma-Aldrich. Toluene ≥99.0%, hexane ≥99.5%, DCM ≥99.5%, chloroform ≥99.5%, DMSO ≥99.0% were purchased from VWR. N,N-diethyl-4-nitroaniline ≥98.0% was purchased from Alfa Aeser. Cyrene was supplied by Circa group. N-butylpyrrolidinone was supplied by Eastman chemicals. N,N-dimethylformamide 99.9% and N,N-dimethylacetamide 99.9% were purchased from Fischer. The flakes of Ultrason® E3020 P Polyarylethersulfone of 55,000 Da were obtained from INGE.BASF, Germany. The CALUX cell lines have been described previously.[1] They are based on human U2-OS cells (ATCC, HTB-96) stably transfected with an expression construct for the full-length human receptor under investigation, and a reporter construct consisting of multimerized responsive elements for the cognate receptor coupled to a minimal promoter element (TATA) and a luciferase gene. Cells were maintained as described previously,[2] using cell culture media and supplements from Fisher Scientific as described in the experimental procedures section. […]
In vitro reporter gene assays
The automated CALUX assays were carried out similarly as described earlier,[12] with some adaptations. In brief, the assay was performed in CO2 independent medium (Fisher Scientific, […]
supplement (Fisher Scientific, 11574466), 10 U/mL penicillin and 10 µg/mL streptomycin. A cell suspension in assay medium was made of 1 × 10^5cells/mL, and white 384-wells plates were seeded with 30 µl cell suspension/well. After 24 h, exposure medium was prepared. A dilution series in 0.5log unit increments of each test compound (in DMSO) was added to a 96-wells plate containing assay medium (2% v/v). Of this exposure mixture, 30 µl was added to the assay plates containing the CALUX cells, resulting in a final DMSO concentration of 1%. Additionally, DMSO blanks and a full dose response curve of the relevant reference compound were included on each plate. All samples were tested in triplicate. The preparation of the compound dilution series as well as the exposure of the cells were performed on a Hamilton StarLET liquid handling robot coupled to a Cytomat incubator.
Directly after exposure, plates were sealed with non-breathing plate seals (Plate sealer, easy seal transparent; Greiner-Bio-One, 676001). After 24 h the exposure medium was removed using an EL406 washer-dispenser (BioTek) and 10 µl/well triton lysisbuffer was added by the EL406.
Subsequently, the luciferase signal was measured in a luminometer (InfinitePro coupled to a Connect Stacker, both TECAN). In order to be able to detect receptor antagonism, several assays were also performed in antagonistic mode. […]
The luminometer data was analysed as follows; the average of the triplicate wells was determined, and the average blank (DMSO) value was subtracted. […] For antagonist- and cytotoxicity experiments, PC20 values were determined instead, which was defined as the concentration where the test compound causes a 20% decrease in the basal signal, which was […]
curve, the signal induction above background (DMSO) was determined, and the concentration where the compound elicited a 1.5-fold increase above background was used as LEC.

CCCCN1CCCC1=O [NBP, N‐Butylpyrrolidinone, reference compound]
LEC TRβ‐anti: –

CCCCN(CCCC)C(=O)CCC(=O)N(CCCC)CCCC [TBSA, N,N,N′,N′‐tetrabutylsuccindiamide]
LEC TRβ‐anti: –

CN1CCCC1=O [NMP, N‐methyl‐2‐pyrrolidone, reference compound]
LEC TRβ‐anti: –

CCCCN(CC)C(=O)CCC(=O)N(CC)CCCC [EBSA, N,N′‐diethyl‐N,N′‐dibutylsuccindiamide]
LEC TRβ‐anti: –

CCCCN(C)C(=O)CCC(=O)N(C)CCCC [MBSA, N,N′‐dimethyl‐N,N′‐dibutylsuccindiamide]
LEC TRβ‐anti: –

From publication PMC7318222, “A Family of Water‐Immiscible, Dipolar Aprotic, Diamide Solvents from Succinic Acid” (Chemsuschem, 2020)
